Source: patent publication US20250288581A1, “BALIPODECT FOR TREATING OR PREVENTING AUTISM SPECTRUM DISORDERS” (TAKEDA PHARMACEUTICAL COMPANY LIMITED, priority 2018, published 2025)
Where “and” joins values, the source holds several entries; their conditions need not be identical. Equal values may be shown once. Read-outs that look alike come from different tables or passages of the source.

Tests used:
Male FMR1 knockout mice [1] = test: Suppression of audiogenic seizures in FMR1 mouse model of Fragile X Syndrome; assay type: in vivo; conditions: 125 dB tone, vs vehicle Group (1); for Latency to seizure: 5-minute test, Compound A 5 mg/kg oral 150 min prior, MPEP 30 mg/kg i.p. 30 min prior, FIG. 5; for Percent seizure (seizure rates): Compound A 5 mg/kg oral, MPEP 30 mg/kg i.p., p<0.05, FIG. 6
Procedure: Male FMR1 knockout mice were bred at PsychoGenics. The mice were housed in OPTI-Mice ventilated cages for the duration of the study. All mice were acclimated to the environment, examined, handled, and weighed prior to initiation of the study to assure adequate health and suitability and to minimize non-specific stress associated with manipulation. During the course of the study, 12/12 light/dark cycles were maintained. The room temperature was maintained between 20 and 23° C. with a relative humidity maintained around 50%. Chow and water were provided ad libitum for the duration of the study. Each mouse was randomly assigned across treatment groups. The testing was performed during the animals' light cycle phase at 3 weeks of age.
Prior to audiogenic seizures, on test day, three groups of mice were pre-treated as follows: • Group (1): a vehicle orally administered at a dose volume of 10 mL/kg, 150 minutes prior to testing. • Group (2): 6-Methyl-2-(phenylethynyl) pyridine HCI (“MPEP”) (Sigma Aldrich; 30 mg/kg) was dissolved in sterile injectable saline and was administered by intraperitoneal injection at a dose volume of 10 mL/kg, 30 minutes prior to testing.
After the pre-treatments, the mice of Groups (1)-(3) were individually placed in a Plexiglas chamber and allowed to explore for 15 seconds. Then, they were exposed to a 125 dB tone. The observer was blinded to the pre-treatment conditions during the test. The mice were scored by the observer based on their response, latency, and seizure intensity during a 5-minute test as follows: • 0: no response • 1. wild running and jumping • 2: clonic seizures • 3: clonic-tonic seizures • 4: tonic seizures • 5: respiratory arrest
The following endpoints were reported. […] Latency to seizure (max 300 sec. if no seizure) • 2. Percent seizure • 3. Seizure score

[2] = Fraction unbound in plasma (fu, plasma); assay type: in vitro ADME; conditions: mouse
Text: An in vitro profile of the PDE10A inhibitor was created for the CDKL5-/Y mice.

[3] = tested on: CDKL5 male hemizygous (-/Y) mice; test: Open Field Test in CDKL5 knock-out mice model; assay type: in vivo; conditions: Compound A 5 mg/kg once per day oral; 15-minute trial; vs Groups (1) and (2); FIGS. 2A, 2B
Procedure: Spontaneous activity in an Open Field Arena is commonly used to assess general activity and ambulation. Mice were placed in the center of an arena for a fifteen-minute trial. The horizontal, vertical (rearing) and center activity are dependent variables.
FIG. 2A provides the results per minute from 0 to 15 minutes. FIG. 2B provides the results in five-minute intervals from 5 to 15 minutes.

[4] = tested on: CDKL5 male hemizygous (-/Y) mice; test: Hindpaw clasping (amplexus) test in CDKL5 knock-out mice model; assay type: in vivo; conditions: Compound A 5 mg/kg once per day oral gavage; vs CDKL5-/Y vehicle Group (2); FIG. 1
Procedure: A hind paw clasping test was performed in accordance with the procedures outlined by Wang et al., PNAS, vol. 109, no. 52, pp. 21516-21521 (2012). The test is done in a CDKL5 knock-out mice model. Mice are suspended for a two-minute trial. If clasping occurs for two seconds, the mouse is positive for CDKL5 deficiency, which is a neurological impairment. Wang et al. noted the CDKL5 mutant mice, but no quantification was made. Tang et al., J. Neurosci. 37(31):7420-7437 (2017) reported 17/18 (94%) hemi male mice were positive for the clasp phenotype.
(§1) Neurobehavioral assays were run when the mice were 8-10 weeks old. Tissues were collected at the end of the study to determine plasma and CNS PK.
If clasping occurs for two seconds, the mouse is positive for CDKL5 deficiency.

Male FMR1 knockout mice [5] = test: Fear Conditioning test in FMR1 mouse model of FXS; assay type: in vivo
Procedure: After completion of the open field test described in Example 6, a Fear Conditioning test was conducted on the mice of Groups (1)-(3) in a fear conditioning system manufactured by Coulbourn Instruments (PA, USA).
On day 1, mice were placed in a conditioning chamber to habituate to the context for 2 minutes […]. A tone was presented for 20 seconds. 30 seconds after the CS ended, a foot shock (1 s, 0.5 mA) was presented (US). The pairing of the CS and US was repeated a total of 3 times, with an interval of 60 seconds between pairings. Mice remained in the conditioning chamber for another 60 seconds, and then returned to their home cage.
In the morning of day 2, mice were tested for contextual memory. Mice were placed in chambers for 5 minutes. In the afternoon of day 2, mice were tested for cued memory. Mice were placed in the conditioning chamber to habituate to the context for 2 minutes (Pre-Cue). Then, the CS was presented for a total of three times for 20 seconds, with 60 second inter-trial intervals. Freezing behavior, defined as the complete lack of movement, was captured automatically with a video system and Freeze View software (Coulbourn Instruments, PA, USA).

Male FMR1 knockout mice [6] = test: Open Field Test in FMR1 mouse model of FXS; assay type: in vivo; conditions: Compound A 5 mg/kg oral for two weeks; FIGS. 7 and 8
Procedure: Male FMR1 knockout (“KO”) mice and wild-type (“WT”) mice were bred at PsychoGenics. These mice were handled and chosen according to Example 5. However, the open field test started at 10 weeks of age, following 2 weeks of dosing. Three groups of mice were tested as follows: • Group (1): WT—Vehicle Group: a vehicle was orally administered for two weeks at a dose volume of 10 mL/kg. On testing days, the vehicle was administered 150 minutes prior to testing. • Group (2): FMR1 KO—Group: a vehicle was orally administered for two weeks at a dose volume of 10 mL/kg.
Open field chambers made of Plexiglas square chambers (27.3×27.3×20.3 cm; Med Associates Inc., St Albans, VT) surrounded by infrared photo beams (16×16×16) were used to measure horizontal and vertical activity of tested mice. The mice were brought into the chamber for at least 1 hour acclimation to the experimental room conditions prior to testing. Following 150 minutes of pre-treatment, the mice were placed in the center of the chamber for a 60-minute test period. After the 60-minutes, the mice were placed back into their home cage. During the test period, locomotor activity was measured in 5 minute intervals and total distance traveled was measured.

[7] = Plasma and brain exposure analysis after oral administration; assay type: in vivo; conditions: CDKL5-/Y mice; for concentration at 24 h: male, CDKL5-/Y, mouse, 5 mg/kg
Text: as §1
In Table 1, “LLOQ” is the “lower limit of quantification”, and it is used to indicate the sensitivity of the assays. The numbers in plasma and brain columns are in ng/mL for plasma and ng/g for brain.

## Cc1cccc(C#Cc2ccccc2)n1.Cl [MPEP, 6-Methyl-2-(phenylethynyl) pyridine HCl, reference compound]
Male FMR1 knockout mice [1]
  Latency to seizure: increased the latency to seizure
  Percent seizure (seizure rates): significantly decreased seizure rates

## COc1cn(-c2ccc(-n3cccn3)cc2F)nc(-c2ccnn2-c2ccccc2)c1=O [Compound A, 1-[2-fluoro-4-(1H-pyrazol-1-yl)phenyl]-5-methoxy-3-(1-phenyl-1H-pyrazol-5-yl)pyridazin-4(1H)-one]
[2]
  fraction unbound: 0.116
[3]
  total distance traveled in the open field: significantly suppressed the total distance traveled
Male FMR1 knockout mice [1]
  Latency to seizure: increased the latency to seizure
  Percent seizure (seizure rates): significantly decreased seizure rates
[4]
  percentage of no clasping: increased the percentage of no clasping
Male FMR1 knockout mice [5]; 5 minute test, minute 2 and minute 5, Compound A 5 mg/kg oral, FIG. 10
  freezing response, contextual fear conditioning time course: increased freezing response
Male FMR1 knockout mice [5]; ANOVA between treatment groups, FIG. 11
  freezing behavior during Pre-Cue, cued fear conditioning: no significant differences
Male FMR1 knockout mice [5]; FMR1 mice, p=0.06, FIG. 11
  freezing response during Cue, cued fear conditioning: strong trend to increasing freezing response
Male FMR1 knockout mice [5]; FMR1 mice, FIG. 11
  freezing response during Post-Cue, cued fear conditioning: increased freezing response
Male FMR1 knockout mice [6]
  hyperactivity (total distance traveled, 60-minute open field test): suppresses hyperactivity
[7]; oral 5 mg/kg once per day, 14 days, 24 hours after the last dose, LLOQ 0.1
  Concentration in mouse plasma, individual sample: 4.3 ng/mL and 8.0 ng/mL and 4.4 ng/mL and 4.8 ng/mL and 2.8 ng/mL and 7.0 ng/mL and 3.1 ng/mL
[7]; oral 5 mg/kg once per day, 14 days, 24 hours after the last dose, LLOQ 0.5
  Concentration in mouse brain, individual sample: 48.2 ng/g and 38.9 ng/g and 64.5 ng/g and 44.9 ng/g and 43.8 ng/g
[7]; brain, po, oral 5 mg/kg once per day, 14 days, 24 hours after the last dose, LLOQ 0.5, read-out: Concentration in mouse brain, individual sample
  concentration at 24 h: 36.3 ng/g
[7]; brain, po, oral 5 mg/kg once per day, 14 days, 24 hours after the last dose, N=6-7, read-out: Concentration in mouse brain, Mean
  concentration at 24 h: 46.1 ng/g
[7]; plasma, oral, 24 hours after the last administration, read-out: plasma concentration in all mice vs target IC50 in vivo
  concentration at 24 h: > 1.1 ng/mL
[7]; plasma, po, oral 5 mg/kg once per day, 14 days, 24 hours after the last dose, N=6-7, read-out: Concentration in mouse plasma, Mean
  concentration at 24 h: 4.9 ng/mL
